In ChEMBL document CHEMBL5576084, “Development of chromone-thiazolidine-2,4-dione Knoevenagel conjugates as apoptosis inducing agents” (Bioorg Med Chem Lett, 2024):
Active and inactive are the calls of the source. No cut-off for these calls is given here.

Columns and labels:
A549 [1] = test: Induction of apoptosis in human A549 cells assessed as increase in necrotic cells by measuring red signals at 1.5 uM by acridine orange/EtBr staining based analysis; format: functional, cell-based
A549 [2] = test: Induction of apoptosis in human A549 cells assessed as necrotic cells at 1.5 uM by Annexin V-FITC/PI staining based flow cytometric analysis (reference value: 0.46 %); format: functional
A549 [3] = test: Induction of apoptosis in human A549 cells assessed as late apoptotic cells at 1.5 uM by Annexin V-FITC/PI staining based flow cytometric analysis (reference value: 0.19 %); format: functional
A549 [4] = test: Induction of ROS generation in human A549 cells assessed as fold change at 1.5 uM by DCFDA-H2 fluorescent dye based flow cytometric analysis relative to control; format: functional
A549 [5] = test: Induction of apoptosis in human A549 cells assessed as increase in late apoptotic cells by measuring orange red signals at 1.5 uM by acridine orange/EtBr staining based analysis; format: functional, cell-based
A549 [6] = test: Cell cycle arrest in human A549 cells assessed as increase in G0/G1phase cell frequency at 1.5 uM by PI staining based flow cytometric analysis relative to control; format: functional
A549 [7] = test: Induction of apoptosis in human A549 cells assessed as inhibition of Bcl-2 expression at 1.5 uM by PI staining based flow cytometric analysis relative to control; format: functional
A549 [8] = test: Induction of apoptosis in human A549 cells assessed as early apoptotic cells at 1.5 uM by Annexin V-FITC/PI staining based flow cytometric analysis (reference value: 0.32 %); format: functional
A549 [9] = test: Induction of apoptosis in human A549 cells assessed as reduction in green intensity at 1.5 uM by acridine orange/EtBr staining based analysis; format: functional, cell-based
A549 [10] = test: Induction of apoptosis in human A549 cells assessed as increase in yellowish green intensity at 1.5 uM by acridine orange/EtBr staining based analysis; format: functional, cell-based
A549 [11] = test: Cytotoxicity against human A549 cells assessed as inhibition of cell growth; format: functional, cell-based
A549 [12] = test: Induction of apoptosis in human A549 cells assessed as late apoptotic cells at 9 uM by Annexin V-FITC/PI staining based flow cytometric analysis (reference value: 0.19 %); format: functional
A549 [13] = test: Induction of DNA damage in human A549 cells assessed as increase in red fluorescence at 3 to 9 uM by acridine orange/EtBr staining based analysis; format: functional, cell-based; details: dose 3-9 µM
A549 [14] = test: Induction of apoptosis in human A549 cells assessed as necrotic cells at 3 uM by Annexin V-FITC/PI staining based flow cytometric analysis (reference value: 0.46 %); format: functional
A549 [15] = test: Cell cycle arrest in human A549 cells assessed as accumulation of cells at G2/M phase at 3 uM by PI staining based flow cytometric analysis (reference value: 11.5 %); format: functional
SK-MEL-28 = test: Cytotoxicity against human SK-MEL-28 cells assessed as inhibition of cell growth incubated for 48 hrs by MTT assay; format: functional, cell-based; details: SK-MEL-28, 48 h
A549 [16] = test: Induction of ROS generation in human A549 cells assessed as fold change at 9 uM by DCFDA-H2 fluorescent dye based flow cytometric analysis relative to control; format: functional
A549 [17] = test: Induction of ROS generation in human A549 cells assessed as fold change at 3 uM by DCFDA-H2 fluorescent dye based flow cytometric analysis relative to control; format: functional
A549 [18] = test: Induction of DNA damage in human A549 cells assessed as DNA condensation by measuring increase in fluorescence intensity at 3 to 9 uM by DAPI staining based fluorescence microscopic analysis; format: functional, cell-based; details: dose 3-9 µM
A549 [19] = test: Cell cycle arrest in human A549 cells assessed as accumulation of cells at G2/M phase at 9 uM by PI staining based flow cytometric analysis (reference value: 11.5 %); format: functional
A549 [20] = test: Induction of ROS generation in human A549 cells assessed as fold change at 6 uM by DCFDA-H2 fluorescent dye based flow cytometric analysis relative to control; format: functional
A549 [21] = test: Induction of apoptosis in human A549 cells assessed as increase in necrotic cells by measuring red signals at 3 to 9 uM by acridine orange/EtBr staining based analysis; format: functional, cell-based; details: dose 3-9 µM
A549 [22] = test: Induction of DNA damage in human A549 cells assessed as decrease in green fluorescence at 3 to 9 uM by acridine orange/EtBr staining based analysis; format: functional, cell-based; details: dose 3-9 µM
A549 [23] = test: Induction of apoptosis in human A549 cells assessed as reduction in Bcl-2 expression at 9 uM by PI staining based flow cytometric analysis relative to control; format: functional; design: scale not given: the % may be the effect or the level left
A549 [24] = test: Induction of apoptosis in human A549 cells assessed as necrotic cells at 6 uM by Annexin V-FITC/PI staining based flow cytometric analysis (reference value: 0.46 %); format: functional
A549 [25] = test: Induction of apoptosis in human A549 cells assessed as early apoptotic cells at 6 uM by Annexin V-FITC/PI staining based flow cytometric analysis (reference value: 0.32 %); format: functional
A549 [26] = test: Induction of apoptosis in human A549 cells assessed as reduction in green intensity at 3 to 9 uM by acridine orange/EtBr staining based analysis; format: functional, cell-based; details: dose 3-9 µM
A549 [27] = test: Induction of apoptosis in human A549 cells assessed as early apoptotic cells at 9 uM by Annexin V-FITC/PI staining based flow cytometric analysis (reference value: 0.32 %); format: functional
A549 [28] = test: Induction of apoptosis in human A549 cells assessed as necrotic cells at 9 uM by Annexin V-FITC/PI staining based flow cytometric analysis (reference value: 0.46 %); format: functional
A549 [29] = test: Induction of apoptosis in human A549 cells assessed as increase in yellowish green intensity at 3 to 9 uM by acridine orange/EtBr staining based analysis; format: functional, cell-based; details: dose 3-9 µM
MCF7 = test: Cytotoxicity against human MCF7 cells assessed as inhibition of cell growth incubated for 48 hrs by MTT assay; format: functional, cell-based; details: MCF7, 48 h
A549 [30] = test: Induction of apoptosis in human A549 cells assessed as appearance of shrunken cells with fragmented nucleus at 3 to 9 uM by DAPI staining based fluorescence microscopic analysis; format: functional, cell-based; details: dose 3-9 µM
[31] = Cytotoxicity against HEK293 cells assessed as inhibition of cell growth incubated for 48 hrs by MTT assay; format: toxicity, cell-based; details: human
A549 [32] = test: Cell cycle arrest in human A549 cells assessed as accumulation of cells at G2/M phase at 6 uM by PI staining based flow cytometric analysis (reference value: 11.5 %); format: functional
A549 [33] = test: Induction of apoptosis in human A549 cells assessed as increase in late apoptotic cells by measuring orange red signals at 3 to 9 uM by acridine orange/EtBr staining based analysis; format: functional, cell-based; details: dose 3-9 µM
A549 [34] = test: Induction of apoptosis in human A549 cells assessed as early apoptotic cells at 3 uM by Annexin V-FITC/PI staining based flow cytometric analysis (reference value: 0.32 %); format: functional
HepG2 = test: Cytotoxicity against human HepG2 cells assessed as inhibition of cell growth incubated for 48 hrs by MTT assay; format: functional, cell-based; details: HepG2, 48 h
A549 [35] = test: Induction of apoptosis in human A549 cells assessed as late apoptotic cells at 3 uM by Annexin V-FITC/PI staining based flow cytometric analysis (reference value: 0.19 %); format: functional
A549 [36] = test: Cytotoxicity against human A549 cells assessed as inhibition of cell growth incubated for 48 hrs by MTT assay; format: functional, cell-based; details: A549, 48 h
A549 [37] = test: Induction of apoptosis in human A549 cells assessed as reduction in Bcl-2 expression at 6 uM by PI staining based flow cytometric analysis relative to control; format: functional; design: scale not given: the % may be the effect or the level left
HCT-116 = test: Cytotoxicity against human HCT-116 cells assessed as inhibition of cell growth incubated for 48 hrs by MTT assay; format: functional, cell-based; details: HCT-116, 48 h
A549 [38] = test: Induction of apoptosis in human A549 cells assessed as late apoptotic cells at 6 uM by Annexin V-FITC/PI staining based flow cytometric analysis (reference value: 0.19 %); format: functional
A549 [39] = test: Induction of apoptosis in human A549 cells assessed as reduction in Bcl-2 expression at 3 uM by PI staining based flow cytometric analysis relative to control; format: functional; design: scale not given: the % may be the effect or the level left

For `CC1(C)CCC(CN2CCN(c3ccc(C(=O)NS(=O)(=O)c4ccc(NCC5CCOCC5)c([N+](=O)[O-])c4)c(Oc4cnc5[nH]ccc5c4)c3)CC2)=C(c2ccc(Cl)cc2)C1` [VENETOCLAX], the Activity (A549 [1]) was “Active”, the Activity (A549 [2]) was 5.5% and the Activity (A549 [3]) was 4.9%. The “fold change (FC)” value (A549 [4]) was 9.53, the Activity (A549 [5]) was “Active” and the Activity (A549 [6]) was 6.9%. For the same compound, the inhibition at 1.5 µM (A549 [7]) was 61.7%, the Activity (A549 [8]) was 1.5% and the Activity (A549 [9]) was “Active”. The Activity (A549 [10]) was “Active” and the IC50 (A549 [11]) was 1.5 µM.

In the case of `COc1ccc(C(=O)CN2C(=O)S/C(=C\c3coc4cc(Br)ccc4c3=O)C2=O)cc1`, the Activity (A549 [12]) is reported as 6.6%, the Activity (A549 [13]) is reported as “Active” and the Activity (A549 [14]) is reported as 0.27%. The Activity (A549 [15]) was 18.08%, the IC50 (SK-MEL-28) was over 10 µM and the “fold change (FC)” value (A549 [16]) was 8.9. For the same compound, the “fold change (FC)” value (A549 [17]) was 1.07, the Activity (A549 [18]) was “Active” and the Activity (A549 [19]) was 21.6%. For the same compound, the “fold change (FC)” value (A549 [20]) was 1.4, the Activity (A549 [21]) was “Active” and the Activity (A549 [22]) was “Active”. It also gave an Activity (A549 [23]) of 79.1%, an Activity (A549 [24]) of 0.3% and an Activity (A549 [25]) of 3.1%. For the same compound, the Activity (A549 [26]) was “Active”, the Activity (A549 [27]) was 10.9% and the Activity (A549 [28]) was 0.29%. The Activity (A549 [29]) was “Active”, the IC50 (MCF7) was 8.9 µM and the Activity (A549 [30]) was “Active”. For the same compound, the IC50 at 48 h [31] was 14.1 µM, the Activity (A549 [32]) was 18.4% and the Activity (A549 [33]) was “Active”. For the same compound, the Activity (A549 [34]) was 1.94%, the IC50 (HepG2) was over 10 µM and the Activity (A549 [35]) was 0.98%. For the same compound, the IC50 (A549 [36]) was 6.1 µM, the Activity (A549 [37]) was 38.2% and the IC50 (HCT-116) was over 10 µM. The Activity (A549 [38]) was 2.2% and the Activity (A549 [39]) was 31.7%.
